Results: publication PMC7731220, “Pharmacophore Modeling and 3D-QSAR Study of Indole and Isatin Derivatives as Antiamyloidogenic Agents Targeting Alzheimer’s Disease” (Molecules, 2020)

Each compound was assayed against Aβ40 (Homo sapiens, UniProt P05067) (assay: Inhibition of Aβ40 self-aggregation (thioflavin T fluorescence, 2% HFIP)). Settings: not given.
Sequence of Aβ40 (P05067 672-711 limits assumed): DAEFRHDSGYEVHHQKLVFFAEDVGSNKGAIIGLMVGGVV

| Structure (SMILES) | IC50 |
| --- | --- |
| COc1ccc2c(c1)C(=O)C(=O)N2CCCc1ccccc1 [Compound 12] | 19 ± 4 µM |
| O=C1Nc2ccccc2C1=NNc1ccc2ccccc2c1 [Compound 24, 3-(2-(Naphthalen-2-yl)hydrazono)indolin-2-one] | 10 ± 2 µM |
| CC(C)c1ccc(NN=Cc2c[nH]c3ccccc23)cc1 [Compound 28, 3-((2-(4-Isopropylphenyl)hydrazono)methyl)-1H-indole] | 18 ± 2 µM |
| Clc1cccc(N/N=C/c2c[nH]c3ccccc23)c1 [Compound 30] | 13 ± 2 µM |
| COc1ccc2[nH]cc(C=NNc3cccc(Cl)c3)c2c1 [Compound 31, 3-((2-(3-Chlorophenyl)hydrazineylidene)methyl)-5-methoxy-1H-indole] | 9.2 ± 0.7 µM |
| COc1ccc2[nH]cc(/C=N/Nc3ccc(Cl)cc3)c2c1 [Compound 33] | 22 ± 2 µM |
| COc1ccc2[nH]cc(C=NNc3ccnc4cc(Cl)ccc34)c2c1 [Compound 36, 7-Chloro-4-(2-((5-methoxy-1H-indol-3-yl)methylene)hydrazineyl)quinoline] | 13 ± 1 µM |
| Clc1c(C=NNc2ccccc2)[nH]c2ccc(Br)cc12 [Compound 40, 5-Bromo-3-chloro-2-((2-phenylhydrazineylidene)methyl)-1H-indole] | 25 ± 3 µM |

Same assay, conditions: read-out: Aβ40 Aggregation Inhibition % at 100 μM

| Structure (SMILES) | inhibition at 100 µM |
| --- | --- |
| N/N=C1\C(=O)Nc2ccccc21 [Compound 2] | 17 ± 2% |
| COc1ccc2c(c1)C(=O)C(=O)N2Cc1ccccc1 [Compound 10] | 52 ± 1% |
| COc1ccc2c(c1)C(=O)C(=O)N2C1CC1 [Compound 14] | 38 ± 5% |
| CC(C)c1ccc(NN=C2C(=O)N(C3CC3)c3ccc(O)cc32)cc1 [Compound 20, 1-Cyclopropyl-5-hydroxy-3-(2-(4-isopropylphenyl)hydrazono)indolin-2-one] | 26 ± 3% |
| O=C1Nc2ccccc2C1=NNc1cccc2cccnc12 [Compound 25, 3-(2-(Quinolin-8-yl)hydrazineylidene)indolin-2-one] | 63 ± 5% |
| COc1ccc2[nH]cc(C=NNc3ccc(C#N)cc3)c2c1 [Compound 29, 4-(2-((5-Methoxy-1H-indol-3-yl)methylene)hydrazineyl)benzonitrile] | 56 ± 1% |
| COc1ccc2[nH]cc(C=NNc3ccccn3)c2c1 [Compound 34, 5-Methoxy-3-((2-(pyridin-2-yl)hydrazineylidene)methyl)-1H-indole] | 20 ± 2% |
| CC(C)c1ccc(NN=Cc2[nH]c3ccc(Br)cc3c2Cl)cc1 [Compound 41, 5-Bromo-3-chloro-2-((2-(4-isopropylphenyl)hydrazineylidene)methyl)-1H-indole] | 63 ± 6% |
| CC1(C)OC(=O)C(C=C2Nc3ccccc3C2=O)C(=O)O1 [Compound 44] | 44 ± 1% |
| COc1ccc2[nH]cc(/C=N/NC(=O)c3ccc(F)cc3)c2c1 [Compound 45] | 0% |
